# From BindingDB's records for patent US20240043427 (Gilead Sciences, 2024)
# Target: 5'-nucleotidase (Homo sapiens, UniProt P21589)
# Assay: CD73 Biochemical IC50 Assay
# Procedure: Compound serial dilutions were pre-spotted into Thermo Nunc assay plate. 50 uL CD73 enzyme buffer (CD73 purchased from R&D system=0.6 nM, 25 mM Tris, pH 7.4, 5 mM MgCl2, 1 mM NaH2PO4) was added into the assay plate and incubate for 15 mins. […] The samples were analyzed using Rapid fire.
# Chain of 5'-nucleotidase (P21589 whole entry): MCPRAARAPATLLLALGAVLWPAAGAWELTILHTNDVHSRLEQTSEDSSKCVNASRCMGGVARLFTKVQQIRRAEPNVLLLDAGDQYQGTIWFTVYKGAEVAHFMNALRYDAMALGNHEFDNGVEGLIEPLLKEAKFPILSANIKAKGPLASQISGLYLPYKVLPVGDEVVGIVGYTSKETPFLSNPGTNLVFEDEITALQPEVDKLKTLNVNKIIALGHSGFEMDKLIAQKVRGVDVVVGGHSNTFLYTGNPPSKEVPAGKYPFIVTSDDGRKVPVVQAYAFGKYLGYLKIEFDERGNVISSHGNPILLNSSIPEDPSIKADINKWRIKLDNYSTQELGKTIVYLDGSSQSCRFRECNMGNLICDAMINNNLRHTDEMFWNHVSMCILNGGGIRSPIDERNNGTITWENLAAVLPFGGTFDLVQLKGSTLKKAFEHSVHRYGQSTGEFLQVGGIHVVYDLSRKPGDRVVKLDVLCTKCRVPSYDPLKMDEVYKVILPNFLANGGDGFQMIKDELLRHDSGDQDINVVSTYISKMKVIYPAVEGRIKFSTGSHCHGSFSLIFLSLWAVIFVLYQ
row,IC50 [nM],SMILES
1,67.9,"CC(C)(C)COc1cc(-c2c[nH]c(=O)[nH]c2=O)nn2ccnc12 [US20240043427, Example 679]"
2,0.32,"O=c1[nH]cc(-c2cc([C@H]3C[C@@H]3c3ccc4cnn(CC(F)(F)F)c4c3F)c3ncc(F)n3n2)c(=O)[nH]1 [US20240043427, Example 630]"

row,SMILES,IC50 [nM]
1,"O=c1[nH]cc(-c2cc(N3CC4CC(F)(C4)C3)c3nccn3n2)c(=O)[nH]1 [US20240043427, Example 579]",19.1
